According to patent publication US20040038861A1, “Methods and compositions for normalizing lipid levels in mammalian tissues” (priority 2001, published 2004):

Tested on: soleus muscle
Assay: Individual free fatty acids by gas chromatography in soleus muscle of rats fed high fat diets
Set-up: species or system rat
Details: 1 hour, GC
Source text: High-fatted rats. Groups of male Wistar rats (n=21/diet) were ad libitum fed high-fat diets containing standard rat chow to which 40% (w/w) of lard, corn oil or olive oil had been added, from the time of weaning (age=21 d) until sacrifice at 50 d. Triacylglycerol from lard contains predominantly saturated fatty acids; that from corn oil […], see Table 4.
Soleus muscle tissue isolation and incuhation.Immersion and incubation media was Krebs-Henseleit buffer (KHB) containing 118.5 mM NaCl, 4.75 mM KCl, 1.18 mM MgSO4.7H2O and KH2PO4, 24.8 mM NaHCO3, 2.54 mM CaCl2 and 10 mM d-glucose. The medium was gassed continuously with 95% O2/5% CO2. […] Soleus muscles of both legs were excised keeping the tissue immersed in KHB; muscles were separated into two equal parts and transferred to the incubation flasks. At the completion of incubation the muscles were snap frozen in liquid nitrogen, and then trimmed of connective tissue and all visible fat. The muscle strips were stored at −80° C. until analysis.
Lipid extraction and chromatographic separation of fatty acids. Total lipids were extracted from muscle strips by a modified version of the method of Bligh and Dyer (Gorski et al., 1988, Mol & Cell Biochem 178:113-118; 1. Bligh et al., 1959, Can J Biochem Physiol 37: 911-917). Muscles were homogenised (Soniprep 150) in 0.4 ml of deionised water. Solvent volumes used herein were varied according to the water content of the muscle (ie muscle weight) as described (Bligh & Dyer, supra). 2 vols of methanol containing 0.005% butylated hydroxy toluene (BHT) and 1 vol chloroform were added to the muscle suspension. Homogenates were vortexed at maximum speed for 2 minutes and centrifuged at 2,500 g for 4 minutes. Supernatants were recovered and pellets re-extracted with 2 vol methanol, 1 vol chloroform and 0.8 vol 0.2 N HCl. Residues were vortexed for 2 min then centrifuged at 3,500 g for 3 min. After centrifugation the combined supernatants were diluted with 2v each of milli Q water and chloroform and the phases separated by centrifugation at 3,500 g for 4 minutes. The lower chloroform phase was recovered, neutralised by dropwise addition of 0.2 N methanolic NH4OH and evaporated down in a stream of N2. The samples were stored at −80° C. until required.
Aminopropyl phase (250 mg) was packed into 16 ml teflon columns with teflon frits placed at the top and bottom of the bonded phase. Columns were placed in a Vac Elut apparatus and washed twice with 2 ml portions of hexane (Prasad et al., 1988, J Chromato 428: 221-228; Kaluzny et al., 1985, J Lipid Res 26: 135-140). The dry lipid samples were taken up in two 0.150 ml portions of chloroform and applied to the column under atmospheric pressure. After adsorption the neutral lipids were eluted with 4 ml of chloroform-2-propanol (2:1, v/v) and the free fatty acids eluted with 4 ml of 2% acetic acid in diethyl ether. The solvent containing the free fatty acids was dried under a stream of N2.
Gas-liquid chromatographic analysis. Dry free fatty acid residues were processed for derivatisation of methyl esters by the boron trifluoride-methanol method (Prasad, supra). 1 ml of boron trifluoride in methanol (BF3) was added to each sample, the sample vials were heated at 70° C. for 5 minutes, shaken vigorously, and baked for a further 10 minutes. Once the samples reached room temperature 0.5 ml milli Q water was added, the sample vials shaken, 0.1 ml heptane was added and the sample shaken again. 0.05 ml of the top heptane layer was removed for GLC analysis. A Model HP5890 Plus Series 2 (Hewlett-Packard) gas chromatograph equipped with a DB-225 column was used to separate the methyl esters of the fatty acids and a Model HP 5890 GC with a Model HP 5973 MS (Hewlett-Packard) GC/MS used to confirm the identity of individual free fatty acids. […]

[1] = rats fed diet high in olive oil

Q: Which results are given for `NC[C@H](O)c1ccc(O)c(O)c1` [Norepinephrine, norepinephrine]?
A: free fatty acid adrenic C22:4 (rats fed diet high in corn oil): 0.05 ± 0.004 nmol/g wwt; free fatty acid arachidic C20:0 (rats fed diet high in corn oil): 0.03 ± 0.002 nmol/g wwt; free fatty acid arachidonic C20:4 (rats fed diet high in corn oil): 0.08 ± 0.009 nmol/g wwt; free fatty acid cervonic C22:6 (rats fed diet high in corn oil): 0.04 ± 0.003 nmol/g wwt; free fatty acid linoleic C18:2 (rats fed diet high in corn oil): 0.14 ± 0.02 nmol/g wwt; free fatty acid linolenic C18:3 (rats fed diet high in corn oil): 0.13 ± 0.01 nmol/g wwt; free fatty acid margaric C17:0 (rats fed diet high in corn oil): 0.04 ± 0.006 nmol/g wwt; free fatty acid myristic C14:0 (rats fed diet high in corn oil): 0.02 ± 0.002 nmol/g wwt; free fatty acid oleic C18:1 (rats fed diet high in corn oil): 0.12 ± 0.02 nmol/g wwt; free fatty acid palmitic C16:0 (rats fed diet high in corn oil): 0.09 ± 0.01 nmol/g wwt; free fatty acid palmitoleic (n-7) C16:1 (rats fed diet high in corn oil): 0.007 ± 0.0005 nmol/g wwt; free fatty acid palmitoleic (n-9) C16:1 (rats fed diet high in corn oil): 0.15 ± 0.01 nmol/g wwt; free fatty acid pentadecanoic C15:0 (rats fed diet high in corn oil): 0.04 ± 0.005 nmol/g wwt; free fatty acid stearic C18:0 (rats fed diet high in corn oil): 0.11 ± 0.008 nmol/g wwt; free fatty acid timnodonic C20:5 (rats fed diet high in corn oil): 0.05 ± 0.005 nmol/g wwt; free fatty acid vaccenic C18:1 (rats fed diet high in corn oil): 0.02 ± 0.001 nmol/g wwt; free fatty acid adrenic C22:4 (rats fed diet high in lard): 0.02 ± 0.003 nmol/g wwt; free fatty acid arachidic C20:0 (rats fed diet high in lard): 0.03 ± 0.004 nmol/g wwt; free fatty acid arachidonic C20:4 (rats fed diet high in lard): 0.012 ± 0.003 nmol/g wwt; free fatty acid cervonic C22:6 (rats fed diet high in lard): 0.01 ± 0.001 nmol/g wwt; free fatty acid linoleic C18:2 (rats fed diet high in lard): 0.09 ± 0.003 nmol/g wwt; free fatty acid margaric C17:0 (rats fed diet high in lard): 0.08 ± 0.008 nmol/g wwt; free fatty acid myristic C14:0 (rats fed diet high in lard): 0.04 ± 0.007 nmol/g wwt; free fatty acid oleic C18:1 (rats fed diet high in lard): 0.21 ± 0.01 nmol/g wwt; free fatty acid palmitic C16:0 (rats fed diet high in lard): 0.23 ± 0.02 nmol/g wwt; free fatty acid palmitoleic (n-7) C16:1 (rats fed diet high in lard): 0.02 ± 0.0008 nmol/g wwt; free fatty acid palmitoleic (n-9) C16:1 (rats fed diet high in lard): 0.01 ± 0.001 nmol/g wwt; free fatty acid pentadecanoic C15:0 (rats fed diet high in lard): 0.13 ± 0.02 nmol/g wwt; free fatty acid stearic C18:0 (rats fed diet high in lard): 0.22 ± 0.01 nmol/g wwt; free fatty acid timnodonic C20:5 (rats fed diet high in lard): 0.02 ± 0.004 nmol/g wwt; free fatty acid vaccenic C18:1 (rats fed diet high in lard): 0.07 ± 0.003 nmol/g wwt; free fatty acid adrenic C22:4 [1]: 0.02 ± 0.0007 nmol/g wwt; free fatty acid arachidic C20:0 [1]: 0.009 ± 0.0004 nmol/g wwt; free fatty acid arachidonic C20:4 [1]: 0.03 ± 0.0008 nmol/g wwt; free fatty acid cervonic C22:6 [1]: 0.12 ± 0.03 nmol/g wwt; free fatty acid linoleic C18:2 [1]: 0.04 ± 0.009 nmol/g wwt; free fatty acid linolenic C18:3 [1]: 0.04 ± 0.01 nmol/g wwt; free fatty acid margaric C17:0 [1]: 0.01 ± 0.001 nmol/g wwt; free fatty acid myristic C14:0 [1]: 0.005 ± 0.0002 nmol/g wwt; free fatty acid oleic C18:1 [1]: 0.28 ± 0.03 nmol/g wwt; free fatty acid palmitic C16:0 [1]: 0.19 ± 0.002 nmol/g wwt; free fatty acid palmitoleic (n-7) C16:1 [1]: 0.03 ± 0.009 nmol/g wwt; free fatty acid palmitoleic (n-9) C16:1 [1]: 0.23 ± 0.01 nmol/g wwt; free fatty acid pentadecanoic C15:0 [1]: 0.01 ± 0.0004 nmol/g wwt; free fatty acid stearic C18:0 [1]: 0.16 ± 0.006 nmol/g wwt; free fatty acid timnodonic C20:5 [1]: 0.04 ± 0.004 nmol/g wwt; free fatty acid vaccenic C18:1 [1]: 0.2 ± 0.003 nmol/g wwt

Q: How did the “free fatty acid adrenic C22:4” value (rats fed diet high in corn oil) turn out when rat CGRP-1 was run?
A: 0.04 ± 0.002 nmol/g wwt

Q: What about the “free fatty acid arachidic C20:0” value (rats fed diet high in corn oil) of the same compound?
A: 0.03 ± 0.005 nmol/g wwt

Q: What about the “free fatty acid arachidonic C20:4” value (rats fed diet high in corn oil) of the same compound?
A: 0.02 ± 0.002 nmol/g wwt

Q: And the “free fatty acid cervonic C22:6” value (rats fed diet high in corn oil)?
A: 0.03 ± 0.003 nmol/g wwt

Q: What about the “free fatty acid linoleic C18:2” value (rats fed diet high in corn oil) of the same compound?
A: 0.18 ± 0.008 nmol/g wwt

Q: What about the “free fatty acid linolenic C18:3” value (rats fed diet high in corn oil) of the same compound?
A: 0.17 ± 0.01 nmol/g wwt

Q: What about the “free fatty acid margaric C17:0” value (rats fed diet high in corn oil) of the same compound?
A: 0.02 ± 0.003 nmol/g wwt

Q: And the “free fatty acid myristic C14:0” value (rats fed diet high in corn oil)?
A: 0.03 ± 0.02 nmol/g wwt

Q: What about the “free fatty acid oleic C18:1” value (rats fed diet high in corn oil) of the same compound?
A: 0.16 ± 0.01 nmol/g wwt

Q: What about the “free fatty acid palmitic C16:0” value (rats fed diet high in corn oil) of the same compound?
A: 0.16 ± 0.03 nmol/g wwt

Q: And the “free fatty acid palmitoleic (n-7) C16:1” value (rats fed diet high in corn oil)?
A: 0.01 ± 0.0008 nmol/g wwt

Q: And the “free fatty acid palmitoleic (n-9) C16:1” value (rats fed diet high in corn oil)?
A: 0.20 ± 0.008 nmol/g wwt

Q: What about the “free fatty acid pentadecanoic C15:0” value (rats fed diet high in corn oil) of the same compound?
A: 0.04 ± 003 nmol/g wwt

Q: And the “free fatty acid stearic C18:0” value (rats fed diet high in corn oil)?
A: 0.39 ± 0.02 nmol/g wwt

Q: And the “free fatty acid timnodonic C20:5” value (rats fed diet high in corn oil)?
A: 0.04 ± 0.001 nmol/g wwt

Q: What about the “free fatty acid vaccenic C18:1” value (rats fed diet high in corn oil) of the same compound?
A: 0.02 ± 0.004 nmol/g wwt

Q: And the “free fatty acid adrenic C22:4” value (rats fed diet high in lard)?
A: 0.04 ± 0.005 nmol/g wwt

Q: And the “free fatty acid arachidic C20:0” value (rats fed diet high in lard)?
A: 0.07 ± 0.004 nmol/g wwt

Q: What about the “free fatty acid arachidonic C20:4” value (rats fed diet high in lard) of the same compound?
A: 0.02 ± 0.001 nmol/g wwt

Q: What about the “free fatty acid cervonic C22:6” value (rats fed diet high in lard) of the same compound?
A: 0.015 ± 0.002 nmol/g wwt

Q: And the “free fatty acid linoleic C18:2” value (rats fed diet high in lard)?
A: 0.23 ± 0.005 nmol/g wwt

Q: And the “free fatty acid margaric C17:0” value (rats fed diet high in lard)?
A: 0.09 ± 0.01 nmol/g wwt

Q: What about the “free fatty acid myristic C14:0” value (rats fed diet high in lard) of the same compound?
A: 0.03 ± 0.007 nmol/g wwt

Q: What about the “free fatty acid oleic C18:1” value (rats fed diet high in lard) of the same compound?
A: 0.25 ± 0.02 nmol/g wwt

Q: What about the “free fatty acid palmitic C16:0” value (rats fed diet high in lard) of the same compound?
A: 0.24 ± 0.01 nmol/g wwt

Q: What about the “free fatty acid palmitoleic (n-7) C16:1” value (rats fed diet high in lard) of the same compound?
A: 0.02 ± 0.005 nmol/g wwt

Q: What about the “free fatty acid palmitoleic (n-9) C16:1” value (rats fed diet high in lard) of the same compound?
A: 0.03 ± 0.003 nmol/g wwt

Q: And the “free fatty acid pentadecanoic C15:0” value (rats fed diet high in lard)?
A: 0.14 ± 0.01 nmol/g wwt

Q: And the “free fatty acid stearic C18:0” value (rats fed diet high in lard)?
A: 0.35 ± 0.06 nmol/g wwt

Q: And the “free fatty acid timnodonic C20:5” value (rats fed diet high in lard)?
A: 0.02 ± 0.002 nmol/g wwt

Q: What about the “free fatty acid vaccenic C18:1” value (rats fed diet high in lard) of the same compound?
A: 0.03 ± 0.006 nmol/g wwt

Q: And the “free fatty acid adrenic C22:4” value [1]?
A: 0.03 ± 0.006 nmol/g wwt

Q: And the “free fatty acid arachidic C20:0” value [1]?
A: 0.04 ± 0.001 nmol/g wwt

Q: What about the “free fatty acid arachidonic C20:4” value [1] of the same compound?
A: 0.02 ± 0.007 nmol/g wwt

Q: And the “free fatty acid cervonic C22:6” value [1]?
A: 0.11 ± 0.03 nmol/g wwt

Q: What about the “free fatty acid linoleic C18:2” value [1] of the same compound?
A: 0.06 ± 0.01 nmol/g wwt

Q: And the “free fatty acid linolenic C18:3” value [1]?
A: 0.03 ± 0.0009 nmol/g wwt

Q: What about the “free fatty acid margaric C17:0” value [1] of the same compound?
A: 0.03 ± 0.012 nmol/g wwt

Q: And the “free fatty acid myristic C14:0” value [1]?
A: 0.015 ± 0.0009 nmol/g wwt

Q: What about the “free fatty acid oleic C18:1” value [1] of the same compound?
A: 0.34 ± 0.01 nmol/g wwt

Q: What about the “free fatty acid palmitic C16:0” value [1] of the same compound?
A: 0.20 ± 0.006 nmol/g wwt

Q: What about the “free fatty acid palmitoleic (n-7) C16:1” value [1] of the same compound?
A: 0.02 ± 0.002 nmol/g wwt

Q: And the “free fatty acid palmitoleic (n-9) C16:1” value [1]?
A: 0.27 ± 0.013 nmol/g wwt

Q: And the “free fatty acid pentadecanoic C15:0” value [1]?
A: 0.08 ± 002 nmol/g wwt

Q: What about the “free fatty acid stearic C18:0” value [1] of the same compound?
A: 0.12 ± 0.004 nmol/g wwt

Q: What about the “free fatty acid timnodonic C20:5” value [1] of the same compound?
A: 0.01 ± 0.001 nmol/g wwt

Q: And the “free fatty acid vaccenic C18:1” value [1]?
A: 0.17 ± 0.008 nmol/g wwt
